Experimental data taken from US6461997B1, “Triazole sulfones having herbicidal activity” (Monsanto Technology LLC, priority 1999, dated 2002).

Experiments:
AVEFA (wild oat) = assay: Pre-emergence herbicidal activity, cool season; assay type: in vivo, Avena fatua; details: GR80 = lowest tested rate (300, 100, 30, 10 g/ha) with 80% or greater inhibition; approx. 14 days after treating; 18/13° C.
Method in brief: (§1)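 Seeds sown in sterilised fertilised topsoil received surface-applied compound in 50:50 acetone/water, typically at 300, 100, 30 and 10 g/ha, then greenhouse-grown at 30/21° C (warm-season species) or 18/13° C (cool-season species). Percent inhibition versus untreated plants was scored at about 14 days, giving GR80; an asterisk marks activity short of 80% at the top rate.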

KCHSC (kochia) [1] = assay: Pre-emergence herbicidal activity, cool season; assay type: in vivo, Kochia scoparia; details: lowest tested rate with 80% or greater inhibition; rates 300, 100, 30, 10 g/ha; about 14 days
Procedure: Tables 5 to 8 summarize results of tests conducted as described below to determine the pre-emergence herbicidal activity, in the form of a GR80 value, of illustrative compounds of this invention. […] Compounds of the invention were typically applied at rates of 300, 100, 30, and 10 g/ha. Where herbicidal activity was evident but 80% inhibition was not achieved at the highest rate tested, an asterisk (*) is shown in the following tables.
The pre-emergence tests were conducted by the following procedure. Topsoil was sieved to pass through a 1.27 cm screen. Fertilizer was added to the topsoil and the mixture was then sterilized by heating. The topsoil mixture was placed in a pot and compacted to a depth of 1.0 to 1.25 cm from the top of the pot. Seeds of each of several monocotyledonous and dicotyledonous annual plant species were placed on top of the soil. Additional soil was subsequently placed over the seeds to level-fill the pot. A known amount of each test compound dissolved or suspended in an appropriate organic solvent was diluted with a 50:50 mix of acetone and water and applied to the surface of the soil. After treatment the plants were placed in a greenhouse where they received 0.64 cm of overhead irrigation. All subsequent watering consisted of a light overhead mist and/or subirrigation as needed for germination and growth. Tables 5 and 6 below relate to warm season plant species which were placed after pre-emergence treatment in a greenhouse with a 30/21° C. day/night temperature regime. Tables 7 and 8 below relates to cool season plant species placed after pre-emergence treatment in a greenhouse or growth chamber with an 18/13° C. day/night temperature regime.
(§2) Approximately 14 days after planting and treating, the plants were observed and herbicidal efficacy recorded as percent inhibition by comparison with untreated plants.
The plant species usually regarded as weeds which were utilized in the tests are identified in the tables below according to the following legend, in which “d” indicates a dicotyledonous species and “m” a monocotyledonous species. All monocotyledonous species included in the tests herein are grasses.

DATST (jimsonweed) = assay: Pre-emergence herbicidal activity, warm season; assay type: in vivo, Datura stramonium; details: GR80 = lowest tested rate (300, 100, 30, 10 g/ha) with 80% or greater inhibition; approx. 14 days after treating; 30/21° C.
Method in brief: as §1

SASKR (russian thistle) = assay: Pre-plant incorporated (PPI) herbicidal activity, cool season; assay type: in vivo, Salsola kali; details: for PPI activity GR80, SASKR: pre-plant incorporated, lowest tested rate with 80% or greater inhibition, about 14 days
Procedure: (§3) In another set of tests, the pre-plant incorporated (PPI) activity of compounds of this invention was evaluated on the same species as for the pre-emergence tests described above. In the PPI tests the following procedure, designed to simulate PPI application, was used.
(§4) A pre-prepared topsoil mixture (described above) was placed in a pot and compacted to a depth of 1.0 to 1.25 cm from the top of the pot. Seeds of each of several monocotyledonous and dicotyledonous annual plant species were placed on top of the soil. A sufficient quantity of soil to cover the seeds and level fill the pot was weighed into an open container. A known amount of the test compound was dissolved or suspended in an organic solvent and applied by spraying to this cover soil. The cover soil was thoroughly mixed to distribute the test compound throughout the cover soil, and was then applied as a cover layer over the seeds. Untreated soil was used as a cover layer for control pots. After treatment the plants were placed in a greenhouse where they received 0.64 cm of overhead irrigation. All subsequent watering consisted of a light overhead mist and/or subirrigation as needed for germination and growth. Tables 9 and 10 below relate to warm season plant species which were placed after pre-emergence treatment in a greenhouse with a 30/21° C. day/night temperature regime. Tables 11 and 12 below relates to cool season plant species placed after pre-emergence treatment in a greenhouse or growth chamber with an 18/13° C. day/night temperature regime. Only the compounds of Examples 1, 6, 8, 11, 13 and 15-20 were included in PPI tests.
as §2

BROTE (downy brome) = assay: Pre-emergence herbicidal activity, cool season; assay type: in vivo, Bromus tectorum; details: GR80 = lowest tested rate (300, 100, 30, 10 g/ha) with 80% or greater inhibition; approx. 14 days after treating; 18/13° C.
Method in brief: as §1

[2] = system: IPOSS (annual morningglory); assay: Pre-plant incorporated (PPI) herbicidal activity, warm season; assay type: in vivo, Ipomoea spp.; details: PPI application
Procedure: as §3, §4, §2

[3] = system: AGRRE (quackgrass (seedling)); assay: Pre-emergence herbicidal activity, cool season; assay type: in vivo, Elymus repens; details: GR80 = lowest tested rate (300, 100, 30, 10 g/ha) with 80% or greater inhibition; approx. 14 days after treating; 18/13° C.
Method in brief: as §1

LOLMG (annual ryegrass) = assay: Pre-emergence herbicidal activity, cool season; assay type: in vivo, Lolium multiflorum; details: GR80 = lowest tested rate (300, 100, 30, 10 g/ha) with 80% or greater inhibition; approx. 14 days after treating; 18/13° C.
Method in brief: as §1

CONAR (field bindweed) [4] = assay: Pre-emergence herbicidal activity, warm season; assay type: in vivo, Convolvulus arvensis; details: GR80 = lowest tested rate (300, 100, 30, 10 g/ha) with 80% or greater inhibition; approx. 14 days after treating; 30/21° C.
Method in brief: as §1

CONAR (field bindweed) [5] = assay: Pre-plant incorporated (PPI) herbicidal activity, warm season; assay type: in vivo, Convolvulus arvensis; details: GR80 = lowest tested rate with 80% or greater inhibition, approx. 14 days after treating, 30/21° C.
Procedure: as §3, §4, §2

KCHSC (kochia) [6] = assay: Pre-plant incorporated (PPI) herbicidal activity, cool season; assay type: in vivo, Kochia scoparia; details: for PPI activity GR80, KCHSC: pre-plant incorporated, lowest tested rate with 80% or greater inhibition, about 14 days; for Percent inhibition KCHSC: weed, PPI application
Procedure: as §3, §4, §2

POROL (common purslane) = assay: Pre-plant incorporated (PPI) herbicidal activity, warm season; assay type: in vivo, Portulaca oleracea; details: GR80 = lowest tested rate with 80% or greater inhibition, approx. 14 days after treating, 30/21° C.
Procedure: as §3, §4, §2

ABUTH (velvetleaf) = assay: Pre-emergence herbicidal activity, warm season; assay type: in vivo, Abutilon theophrasti; details: GR80 = lowest tested rate (300, 100, 30, 10 g/ha) with 80% or greater inhibition; approx. 14 days after treating; 30/21° C.
Method in brief: as §1

[7] = system: CIRAR (canada thistle (seedling)); assay: Pre-plant incorporated (PPI) herbicidal activity, warm season; assay type: in vivo, Cirsium arvense; details: GR80 = lowest tested rate with 80% or greater inhibition, approx. 14 days after treating, 30/21° C.
Procedure: as §3, §4, §2

[8] = weed, PPI application, 100 g/ha
[9] = weed, PPI application, 300 g/ha
[10] = weed, PPI application, 900 g/ha

Compound: CCN(CC)C(=O)n1cnc(S(=O)(=O)C(F)(F)C(F)(F)Br)n1 [Example 4]
- Pre-emergence activity (GR80) AVEFA (AVEFA (wild oat)): 30 g/ha
- Pre-emergence activity GR80, KCHSC (KCHSC (kochia) [1]): 100 g/ha
- Pre-emergence activity (GR80) DATST (DATST (jimsonweed)): 300 g/ha
- Percent inhibition SASKR (SASKR (russian thistle); weed, PPI application, 30 g/ha): 75%
- Percent inhibition SASKR (SASKR (russian thistle); [8]): 90%
- Percent inhibition SASKR (SASKR (russian thistle); [9]): 99%
- Percent inhibition SASKR (SASKR (russian thistle); [10]): 100%
- Pre-emergence activity (GR80) BROTE (BROTE (downy brome)): 300 g/ha
- Percent inhibition IPOSS ([2]; 30 g/ha): 0%
- Percent inhibition IPOSS ([2]; 100 g/ha): 80%
- Percent inhibition IPOSS ([2]; 300 g/ha): 60%
- Percent inhibition IPOSS ([2]; 900 g/ha): 100%
- Pre-emergence activity (GR80) AGRRE [3]: 30 g/ha
- Pre-emergence activity (GR80) LOLMG (LOLMG (annual ryegrass)): 300 g/ha

Compound: CCN(CC)C(=O)n1cnc(S(=O)(=O)C(F)(F)F)n1 [Example 2]
- Pre-emergence activity GR80, KCHSC (KCHSC (kochia) [1]): 300 g/ha
- Pre-emergence activity (GR80) DATST (DATST (jimsonweed)): 300 g/ha
- Percent inhibition SASKR (SASKR (russian thistle); weed, PPI application, 30 g/ha): 50%
- Percent inhibition SASKR (SASKR (russian thistle); [8]): 80%
- Percent inhibition SASKR (SASKR (russian thistle); [9]): 85%
- Percent inhibition SASKR (SASKR (russian thistle); [10]): 100%
- Pre-emergence activity (GR80) BROTE (BROTE (downy brome)): 300 g/ha
- Percent inhibition IPOSS ([2]; 100 g/ha): 20%
- Percent inhibition IPOSS ([2]; 300 g/ha): 100%
- Percent inhibition IPOSS ([2]; 900 g/ha): 95%
- Pre-emergence activity (GR80) AGRRE [3]: 100 g/ha
- Pre-emergence activity (GR80) LOLMG (LOLMG (annual ryegrass)): 300 g/ha
- Pre-emergence activity (GR80) CONAR (CONAR (field bindweed) [4]): 300 g/ha

Compound: CCSC(F)(F)S(=O)(=O)c1ncn(C(=O)N(CC)CC)n1 [Example 8, 1-(N,N-diethylcarbamoyl)-3-[difluoro(ethylthio)methylsulfonyl]-1,2,4-triazole]
- Pre-emergence activity (GR80) AVEFA (AVEFA (wild oat)): 300 g/ha
- Pre-emergence activity GR80, KCHSC (KCHSC (kochia) [1]): [empty]
- Pre-emergence activity (GR80) DATST (DATST (jimsonweed)): 300 g/ha
- PPI activity (GR80) CONAR (CONAR (field bindweed) [5]): 300 g/ha
- inhibition at 30 g/ha (SASKR (russian thistle); Salsola kali, weed, PPI application, 30 g/ha, read-out: Percent inhibition SASKR): 0%
- inhibition at 100 g/ha (SASKR (russian thistle); Salsola kali, weed, PPI application, 100 g/ha, read-out: Percent inhibition SASKR): 50%
- inhibition at 300 g/ha (SASKR (russian thistle); Salsola kali, weed, PPI application, 300 g/ha, read-out: Percent inhibition SASKR): 90%
- inhibition at 900 g/ha (SASKR (russian thistle); Salsola kali, weed, PPI application, 900 g/ha, read-out: Percent inhibition SASKR): 100%
- PPI activity GR80, SASKR (SASKR (russian thistle)): 100 g/ha
- Pre-emergence activity (GR80) BROTE (BROTE (downy brome)): * (activity observed, at least at highest rate, but <80% inhibition)
- PPI activity GR80, KCHSC (KCHSC (kochia) [6]): 100 g/ha
- inhibition at 30 g/ha ([2]; Ipomoea, 30 g/ha, read-out: Percent inhibition IPOSS): 0%
- inhibition at 100 g/ha ([2]; Ipomoea, 100 g/ha, read-out: Percent inhibition IPOSS): 70%
- inhibition at 300 g/ha ([2]; Ipomoea, 300 g/ha, read-out: Percent inhibition IPOSS): 90%
- inhibition at 900 g/ha ([2]; Ipomoea, 900 g/ha, read-out: Percent inhibition IPOSS): 100%
- PPI activity (GR80) POROL (POROL (common purslane)): 100 g/ha
- Pre-emergence activity (GR80) CONAR (CONAR (field bindweed) [4]): 100 g/ha
- Pre-emergence activity (GR80) ABUTH (ABUTH (velvetleaf)): 300 g/ha
- PPI activity (GR80) CIRAR [7]: 100 g/ha

Compound: C=C(CC(F)(F)S(=O)(=O)c1ncn(C(=O)N(CC)CC)n1)C[Si](C)(C)C [Example 20]
- Pre-emergence activity GR80, KCHSC (KCHSC (kochia) [1]): [empty]
- PPI activity (GR80) CONAR (CONAR (field bindweed) [5]): * (activity observed, at least at highest rate, but <80% inhibition)
- PPI activity GR80, SASKR (SASKR (russian thistle)): 300 g/ha
- Percent inhibition SASKR (SASKR (russian thistle); weed, PPI application, 10 g/ha): 0%
- Percent inhibition SASKR (SASKR (russian thistle); weed, PPI application, 30 g/ha): 0%
- Percent inhibition SASKR (SASKR (russian thistle); [8]): 40%
- Percent inhibition SASKR (SASKR (russian thistle); [9]): 0%
- Percent inhibition SASKR (SASKR (russian thistle); [10]): 100%
- PPI activity GR80, KCHSC (KCHSC (kochia) [6]): [empty]
- Percent inhibition KCHSC (KCHSC (kochia) [6]; 10 g/ha): 50%
- Percent inhibition KCHSC (KCHSC (kochia) [6]; 30 g/ha): 50%
- Percent inhibition KCHSC (KCHSC (kochia) [6]; 100 g/ha): 100%
- Percent inhibition KCHSC (KCHSC (kochia) [6]; 300 g/ha): 100%
- Percent inhibition KCHSC (KCHSC (kochia) [6]; 900 g/ha): 100%
- PPI activity (GR80) POROL (POROL (common purslane)): 100 g/ha
- Pre-emergence activity (GR80) CONAR (CONAR (field bindweed) [4]): * (activity observed, at least at highest rate, but <80% inhibition)
- Pre-emergence activity (GR80) ABUTH (ABUTH (velvetleaf)): 300 g/ha
- PPI activity (GR80) CIRAR [7]: 100 g/ha
